In experiment [1] the test system is normal human dermal fibroblast (HDF) strain. The experiment in a line: Alizarin Red S staining of calcified bone matrix in fibroblasts cultured in induction medium. To be noted: for Alizarin Red S staining images and intensity (OD 550-650 nm), ability to produce calcified matrix: 28 days (FIG. 19); for Alizarin Red S staining intensity (OD 550-650 nm), ability to produce calcified matrix: 28 days (FIG. 10).

The subject of the next experiment is human Runx2 gene. The experiment in a line: Real-time RT-PCR of Runx2 mRNA in cultured HDF. It is filed as cell-based. The following applies: induction medium, 28 days (FIG. 17). (In general: In qPCR the cycle at which signal appears reflects the starting amount.)
In experiment [2] the test system is human alkaline phosphatase (ALP) gene. The experiment in a line: Real-time RT-PCR of ALP mRNA in cultured HDF. It is filed as cell-based. To be noted: 10% FBS induction medium, 28 days, relative to normal human fibroblasts = 1 (FIG. 13). The procedure:
Then, total RNA was collected from the cells using ISOGEN II, and cDNA was synthesized using ReverTra Ace qPCR RT Master Mix. Real-time PCR Master Mix, TaqMan probes, specific primers, and cDNA were mixed, and real-time RT-PCR was performed using an AB7300 Real-Time PCR System to quantify the mRNA of Runx2, osteocalcin (OC), and alkaline phosphatase (ALP) genes. […] Further, RNA was harvested from human osteoblasts, and the same analysis was performed.
The culture was performed as in “2-1” above by adding the stated compounds.
Then, total RNA was collected from the cells using ISOGEN II, and cDNA was synthesized using ReverTra Ace qPCR RT Master Mix. Real-time PCR Master Mix, and a TaqMan probe and primers specific to a human alkaline phosphatase (ALP) gene were added, and real-time RT-PCR was performed using an AB7300 Real-Time PCR System. Furthermore, total RNA was extracted from osteoblasts from normal human bone, and analysis was performed in a similar manner.
Furthermore, total RNA was extracted from osteoblasts from normal human bone, and analysis was performed in a similar manner.
Twenty-eight days after the culture, the mRNA expression of ALP gene in the cells in each well was analyzed by real-time RT-PCR, as in “2-3” above. Furthermore, total RNA was extracted from osteoblasts from normal human bone, and analysis was performed in a similar manner.

The test system of experiment [3] is Normal human white preadipocytes (HWPs). The experiment in a line: Alizarin Red S staining, induction from normal human white preadipocytes. It is filed as cell-based. The following applies: induction medium with 10% FBS, 21 days (FIG. 23).
The next experiment concerns human osteocalcin (OC). The experiment in a line: Real-time RT-PCR of osteocalcin (OC) mRNA in cultured HDF. It is filed as cell-based. The following applies: 5% human serum induction medium, 28 days (FIG. 16).

Description for human Runx2 gene: The culture was performed as in “1” above by adding the stated compounds.
Then, total RNA was collected from the cells using ISOGEN II, and cDNA was synthesized using ReverTra Ace qPCR RT Master Mix. Real-time PCR Master Mix, and a TaqMan probe and primers specific to human Runx2 gene were added, and real-time RT-PCR was performed using an AB7300 Real-Time PCR System.
Description for human osteocalcin (OC): The culture was performed as in “2-6” above by adding the stated compounds.
Then, total RNA was collected from the cells using ISOGEN II, and cDNA was synthesized using ReverTra Ace qPCR RT Master Mix. Real-time PCR Master Mix, and a TaqMan probe and primers specific to human osteocalcin (OC) were added, and real-time RT-PCR was performed using an AB7300 Real-Time PCR System.

Take `O=C(O)c1ccc2c(c1)nc(Nc1cccc(Cl)c1)c1ccncc12` [CX-4945]: the “Alizarin Red S staining images and intensity (OD 550-650 nm), ability to produce calcified matrix” value in experiment [1] is on record as “no effect”.
Turning to `CC[C@H](C)C(=O)O[C@H]1C[C@@H](C)C=C2C=C[C@H](C)[C@H](CC[C@@H]3C[C@@H](O)CC(=O)O3)[C@H]21` [LS, lovastatin], the “Alizarin Red S staining intensity (OD 550-650 nm), ability to produce calcified matrix” value in experiment [1] (induction medium with 10% FBS) is listed as “induced the ability to produce calcified matrix”. Besides, the “Runx2 mRNA expression by real-time RT-PCR” value (“Runx2 mRNA expression” below) in the experiment on human Runx2 gene is reported as “induced the mRNA expression of Runx2 gene”. The “ALP mRNA expression by real-time RT-PCR” value in experiment [2] is “induced the mRNA expression of ALP gene”.
With `CC(C)c1c(C(=O)Nc2ccccc2)c(-c2ccccc2)c(-c2ccc(F)cc2)n1CC[C@@H](O)C[C@@H](O)CC(=O)O` [AS, atorvastatin], the “Alizarin Red S staining intensity (OD 550-650 nm), ability to produce calcified matrix” value in experiment [1] (induction medium with 10% FBS) is recorded as “induced the ability to produce calcified matrix”. The “Runx2 mRNA expression” value in the experiment on human Runx2 gene is listed as “induced the mRNA expression of Runx2 gene”. Moreover, the “ALP mRNA expression by real-time RT-PCR” value in experiment [2] is “induced the mRNA expression of ALP gene”.
With `Nc1nccc2c1ncn2[C@@H]1C=C(CO)[C@@H](O)[C@H]1O` [DZNep, 3-deazaneplanocin A], the “Alizarin Red S staining images and intensity (OD 550-650 nm), ability to produce calcified matrix” value in experiment [1] is “induced the ability to produce calcified matrix”.
With `NC(=O)c1ccc(-c2nc(-c3ccc4c(c3)OCCO4)c(-c3ccccn3)[nH]2)cc1` [D4476, 4-[4-(2,3-dihydro-1,4-benzodioxin-6-yl)-5-(2-pyridinyl)1H-imidazol-2-yl]-benzamide], the “Alizarin Red S staining images and intensity (OD 550-650 nm), ability to produce calcified matrix” value in experiment [1] is given as “induced the ability to produce calcified matrix”. Further, the “Alizarin Red S staining images and intensity, ability to produce calcified matrix” value in experiment [1] (induction medium with 5% human serum, 28 days (FIG. 12)) was “induced a higher ability to produce calcified matrix”; in experiment [1] (induction medium with 10% FBS, 28 days (FIG. 11)) it was “induced the ability to produce calcified matrix”. Besides, in experiment [1] (induction medium with 10% FBS), the “Alizarin Red S staining intensity (OD 550-650 nm), ability to produce calcified matrix” value is listed as “induced the ability to produce calcified matrix”. Moreover, the “ALP mRNA expression by real-time RT-PCR” value in experiment [2] is on record as “induced the mRNA expression of ALP gene”. The “Alizarin Red S staining images, ability to produce calcified matrix” value in experiment [3] is “strongly induced the ability to produce calcified matrix”.
Consider `CC(C)c1nc(N(C)S(C)(=O)=O)nc(-c2ccc(F)cc2)c1/C=C/[C@@H](O)C[C@@H](O)CC(=O)O` [RS, rosuvastatin], for which the “Alizarin Red S staining intensity (OD 550-650 nm), ability to produce calcified matrix” value in experiment [1] (induction medium with 10% FBS) is “induced the ability to produce calcified matrix”. Besides, the “Runx2 mRNA expression” value with human Runx2 gene is “induced the mRNA expression of Runx2 gene”. Moreover, the “ALP mRNA expression by real-time RT-PCR” value in experiment [2] was “induced the mRNA expression of ALP gene”. The “osteocalcin (OC) mRNA expression by real-time RT-PCR” value with human osteocalcin (OC) was “induced the mRNA expression of osteocalcin”.

Source of the values: patent US11174464B2, “Method for preparing osteoblasts and osteoblast inducer” (KYOTO PREFECTURAL PUBLIC UNIVERSITY CORPORATION, priority 2014, dated 2021).
